The text below walks through data of US7829524B2, “Antimicrobial peptides” (Novozymes Adenium Biotech A/S, priority 2003, dated 2010).

Assay [1] has as its system Pseudomonas aeroginosa (ATCC27853). Type of assay: cell-based, Pseudomonas aeruginosa. The protocol: (§1) According to the NCCLS guidelines for susceptibility test of novel antimicrobial compounds, we found a broad spectrum of activity of Cat1 (Methods for Dilution Antimicrobial Susceptibility Tests for Bacteria That Grow Aerobically; Approved Standard-Fifth Edition. NCCLS document M7-A5 (ISBN1-56238-394-9)).
(§2) In another campaign, the specific MICs of Cat1 were determined against a variety of microbial strains relevant for wound infections. As recommended in the above-mentioned NCCLS protocol, the strains were grown in cationic adjusted Muller-Hinton Broth. The highest concentration tested was 32 μg/ml.
Minimal inhibitory concentrations of Cat1 were also determined using cation-adjusted Mueller hinton broth (MHB) in the microbroth dilution assay, wherein MHB was used with different modifications as depicted in Table 2 below. The selected test organism was Pseudomonas aeroginosa (ATCC 27853). […]

In assay [2] the test system is Salmonella choleraesuis (DSM9220). Type of assay: cell-based.
Excerpt: as §1

For assay [3], the system named is Streptotoccus pyogenes ATCC 4543. Type of assay: cell-based. How it is done:
as §1, §2

Assay [4] concerns Klebsiella pneumoniae ATCC 29995. Type of assay: cell-based. How it is done:
as §1, §2

In assay [5] the test system is Citrobacter freundii ATCC 11811. The assay is classed as cell-based. The protocol:
as §1, §2

Assay [6] deals with Aerococcus viridans ATCC 700406. Type of assay: cell-based. The protocol:
as §1, §2

Assay [7] concerns Morganella morganii ATCC 21116. The assay is classed as cell-based. How it is done: as §1, §2
Assay [8] relates to Bordetella bronchiseptica ATCC 14064. Type of assay: cell-based. The protocol:
as §1, §2

The test system of assay [9] is Streptococcus agalactiae ATCC 624. The assay is classed as cell-based. How it is done: as §1, §2
Assay [10] has as its system Staphylococcus epidermidis ATCC 12228. Type of assay: cell-based. The protocol:
as §1, §2

Assay [11] deals with Stenotrophomonas maltophilia ATCC 12714. Type of assay: cell-based. The protocol: as §1, §2
Assay [12] concerns Streptococcus pneumoniae ATCC 10015. Type of assay: cell-based. The protocol: as §1, §2
The subject of assay [13] is Escherichia coli ATCC 25922. Type of assay: cell-based. The protocol:
as §1, §2

In assay [14] the test system is Staphylococcus aureus (MSSA) ATCC 25923. The assay is classed as cell-based. How it is done: as §1, §2
Assay [15] relates to Acinetobacter baumanii ATCC 49137. Type of assay: cell-based. How it is done: as §1, §2
The subject of assay [16] is Staphyloloccus aureus GISA ATCC 700699. Type of assay: cell-based. How it is done:
as §1, §2

Where two headings read alike, the source gives them in different places. Where no end group is shown, it is not given here.

Regarding “GLLRRLRKKIGKKLKKIGQKIKPIRILVP [SEQ ID NO: 3]”, the minimal inhibitory concentration (MIC) in assay [1] (ATCC27853, pH 5.5) was 6 µg/mL; in [1] (ATCC27853, pH 6.5) it was 6 µg/mL; in [1] (susceptible strain, NCCLS guidelines), under 64 µg/mL; in assay [2], under 64 µg/mL; in [3] it was 1.5 µg/mL; in assay [4] it was 8 µg/mL. Moreover, the MIC was 1.5 µg/mL in assay [5]; 0.5 µg/mL in [6]; 1.5 µg/mL in [7]; 0.5 µg/mL in assay [8]; 16 µg/mL in [9]; 4 µg/mL in assay [10]. The MIC in assay [11] was determined as 1 µg/mL; in assay [12], 8 µg/mL; in assay [13] it was 1.5 µg/mL; in assay [14], 32 µg/mL; in assay [15], 8 µg/mL; in assay [16], 32 µg/mL.
